# Reference: PubChem BioAssay (NCI)
#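 A five-concentration, 48-hour dose response in 96-well plates underlies each endpoint, interpolated linearly between surrounding concentrations. At the TGI there is no net growth.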
# Legend:
# Assay in all cases: DTP human tumour cell line panel, 48 h
# 786-0 renal = system: 786-0 renal
# A498 renal = system: A498 renal
# A549 NSCLC = system: A549 NSCLC
# ACHN renal = system: ACHN renal
# BT-549 breast = system: BT-549 breast
# CAKI-1 renal = system: CAKI-1 renal
# CCRF-CEM leukemia = system: CCRF-CEM leukemia
# COLO 205 colon = system: COLO 205 colon
# DU-145 prostate = system: DU-145 prostate
# EKVX NSCLC = system: EKVX NSCLC
# HCC-2998 colon = system: HCC-2998 colon
# HCT-116 colon = system: HCT-116 colon
# HCT-15 colon = system: HCT-15 colon
# HL-60(TB) leukemia = system: HL-60(TB) leukemia
# HOP-62 NSCLC = system: HOP-62 NSCLC
# HOP-92 NSCLC = system: HOP-92 NSCLC
# HS 578T breast = system: HS 578T breast
# HT29 colon = system: HT29 colon
# IGROV1 ovarian = system: IGROV1 ovarian
# K-562 leukemia = system: K-562 leukemia
# KM12 colon = system: KM12 colon
# LOX IMVI melanoma = system: LOX IMVI melanoma
# M14 melanoma = system: M14 melanoma
# MALME-3M melanoma = system: MALME-3M melanoma
# MCF7 breast = system: MCF7 breast
# MDA-MB-231 breast = system: MDA-MB-231 breast
# MDA-MB-435 = system: MDA-MB-435
# MDA-N = system: MDA-N
# MOLT-4 leukemia = system: MOLT-4 leukemia
# NCI-H226 lung = system: NCI-H226 lung
# NCI-H23 lung = system: NCI-H23 lung
# NCI-H460 lung = system: NCI-H460 lung
# NCI-H522 lung = system: NCI-H522 lung
# NCI/ADR-RES ovarian = system: NCI/ADR-RES ovarian
# OVCAR-3 ovarian = system: OVCAR-3 ovarian
# OVCAR-4 ovarian = system: OVCAR-4 ovarian
# OVCAR-5 ovarian = system: OVCAR-5 ovarian
# OVCAR-8 ovarian = system: OVCAR-8 ovarian
# PC-3 prostate = system: PC-3 prostate
# RPMI-8226 leukemia = system: RPMI-8226 leukemia
# RXF 393 renal = system: RXF 393 renal
# SF-268 CNS = system: SF-268 CNS
# SF-295 CNS = system: SF-295 CNS
# SF-539 CNS = system: SF-539 CNS
# SK-MEL-2 melanoma = system: SK-MEL-2 melanoma
# SK-MEL-28 melanoma = system: SK-MEL-28 melanoma
# SK-MEL-5 melanoma = system: SK-MEL-5 melanoma
# SK-OV-3 ovarian = system: SK-OV-3 ovarian
# SN12C renal = system: SN12C renal
# SNB-19 CNS = system: SNB-19 CNS
# SNB-75 CNS = system: SNB-75 CNS
# SR leukemia = system: SR leukemia
# SW-620 colon = system: SW-620 colon
# T-47D breast = system: T-47D breast
# TK-10 renal = system: TK-10 renal
# U251 CNS = system: U251 CNS
# UACC-257 melanoma = system: UACC-257 melanoma
# UACC-62 melanoma = system: UACC-62 melanoma
# UO-31 renal = system: UO-31 renal
smiles,measurement,setting,value
C=C1C(=O)O[C@@H]2C(=O)[C@@H](C)[C@@H]3C=CC(=O)[C@@]3(C)[C@@H](OC(=O)/C(C)=C\C)[C@H]12,TGI,786-0 renal,1 µM
same,TGI,A498 renal,3.44 µM
same,TGI,A549 NSCLC,32.6 µM
same,TGI,ACHN renal,0.609 µM
same,TGI,BT-549 breast,2.01 µM
same,TGI,CAKI-1 renal,0.686 µM
same,TGI,CCRF-CEM leukemia,2.24 µM
same,TGI,COLO 205 colon,0.725 µM
same,TGI,DU-145 prostate,3.5 µM
same,TGI,EKVX NSCLC,2.53 µM
same,TGI,HCC-2998 colon,3.23 µM
same,TGI,HCT-116 colon,0.681 µM
same,TGI,HCT-15 colon,2.27 µM
same,TGI,HL-60(TB) leukemia,0.415 µM
same,TGI,HOP-62 NSCLC,24.8 µM
same,TGI,HOP-92 NSCLC,1.43 µM
same,TGI,HS 578T breast,> 58.8 µM
same,TGI,HT29 colon,1.36 µM
same,TGI,IGROV1 ovarian,3.28 µM
same,TGI,K-562 leukemia,1.64 µM
same,TGI,KM12 colon,8 µM
same,TGI,LOX IMVI melanoma,1.6 µM
same,TGI,M14 melanoma,8.2 µM
same,TGI,MALME-3M melanoma,0.948 µM
same,TGI,MCF7 breast,4.93 µM
same,TGI,MDA-MB-231 breast,3.6 µM
same,TGI,MDA-MB-435,3.69 µM
same,TGI,MDA-N,2.99 µM
same,TGI,MOLT-4 leukemia,2.65 µM
same,TGI,NCI-H226 lung,8.36 µM
same,TGI,NCI-H23 lung,9.8 µM
same,TGI,NCI-H460 lung,6.05 µM
same,TGI,NCI-H522 lung,0.25 µM
same,TGI,NCI/ADR-RES ovarian,7.28 µM
same,TGI,OVCAR-3 ovarian,3.67 µM
same,TGI,OVCAR-4 ovarian,18.2 µM
same,TGI,OVCAR-5 ovarian,4.69 µM
same,TGI,OVCAR-8 ovarian,12 µM
same,TGI,PC-3 prostate,6.04 µM
same,TGI,RPMI-8226 leukemia,1.25 µM
same,TGI,RXF 393 renal,1.47 µM
same,TGI,SF-268 CNS,6.22 µM
same,TGI,SF-295 CNS,27.4 µM
same,TGI,SF-539 CNS,5.11 µM
same,TGI,SK-MEL-2 melanoma,9.89 µM
same,TGI,SK-MEL-28 melanoma,1.01 µM
same,TGI,SK-MEL-5 melanoma,3.13 µM
same,TGI,SK-OV-3 ovarian,26.9 µM
same,TGI,SN12C renal,2.85 µM
same,TGI,SNB-19 CNS,25.9 µM
same,TGI,SNB-75 CNS,19.9 µM
same,TGI,SR leukemia,0.712 µM
same,TGI,SW-620 colon,1.76 µM
same,TGI,T-47D breast,1.68 µM
same,TGI,TK-10 renal,1.74 µM
same,TGI,U251 CNS,6.67 µM
same,TGI,UACC-257 melanoma,4.65 µM
same,TGI,UACC-62 melanoma,2.95 µM
same,TGI,UO-31 renal,2.85 µM
COC(=O)C1Cc2cccc(C)c2C1 (stereo not drawn),TGI,786-0 renal,> 100 µM
same,TGI,A498 renal,> 100 µM
same,TGI,A549 NSCLC,> 100 µM
same,TGI,ACHN renal,> 100 µM
same,TGI,BT-549 breast,> 100 µM
same,TGI,CAKI-1 renal,> 100 µM
same,TGI,CCRF-CEM leukemia,> 100 µM
same,TGI,COLO 205 colon,> 100 µM
same,TGI,DU-145 prostate,> 100 µM
same,TGI,EKVX NSCLC,> 100 µM
same,TGI,HCC-2998 colon,> 100 µM
same,TGI,HCT-116 colon,> 100 µM
same,TGI,HCT-15 colon,> 100 µM
same,TGI,HL-60(TB) leukemia,> 100 µM
same,TGI,HOP-62 NSCLC,> 100 µM
same,TGI,HOP-92 NSCLC,> 100 µM
same,TGI,HS 578T breast,> 100 µM
same,TGI,HT29 colon,> 100 µM
same,TGI,IGROV1 ovarian,> 100 µM
same,TGI,K-562 leukemia,> 100 µM
same,TGI,KM12 colon,> 100 µM
same,TGI,LOX IMVI melanoma,> 100 µM
same,TGI,M14 melanoma,> 100 µM
same,TGI,MALME-3M melanoma,> 100 µM
same,TGI,MCF7 breast,71.6 µM
same,TGI,MDA-MB-231 breast,> 100 µM
same,TGI,MDA-MB-435,> 100 µM
same,TGI,MDA-N,> 100 µM
same,TGI,MOLT-4 leukemia,> 100 µM
same,TGI,NCI-H226 lung,> 100 µM
same,TGI,NCI-H23 lung,> 100 µM
same,TGI,NCI-H460 lung,> 100 µM
same,TGI,NCI-H522 lung,> 100 µM
same,TGI,NCI/ADR-RES ovarian,> 100 µM
same,TGI,OVCAR-3 ovarian,> 100 µM
same,TGI,OVCAR-4 ovarian,> 100 µM
same,TGI,OVCAR-5 ovarian,> 100 µM
same,TGI,OVCAR-8 ovarian,> 100 µM
same,TGI,PC-3 prostate,> 100 µM
same,TGI,RPMI-8226 leukemia,> 100 µM
same,TGI,RXF 393 renal,> 100 µM
same,TGI,SF-268 CNS,> 100 µM
same,TGI,SF-295 CNS,> 100 µM
same,TGI,SF-539 CNS,> 100 µM
same,TGI,SK-MEL-2 melanoma,> 100 µM
same,TGI,SK-MEL-28 melanoma,> 100 µM
same,TGI,SK-MEL-5 melanoma,> 100 µM
same,TGI,SK-OV-3 ovarian,> 100 µM
same,TGI,SN12C renal,> 100 µM
same,TGI,SNB-19 CNS,> 100 µM
same,TGI,SNB-75 CNS,> 100 µM
same,TGI,SR leukemia,> 100 µM
same,TGI,SW-620 colon,> 100 µM
same,TGI,T-47D breast,> 100 µM
same,TGI,TK-10 renal,> 100 µM
same,TGI,U251 CNS,> 100 µM
same,TGI,UACC-257 melanoma,> 100 µM
same,TGI,UACC-62 melanoma,> 100 µM
same,TGI,UO-31 renal,> 100 µM
